The values below are quoted from earlier work in patent US6723337B1, “Transdermal drug delivery system for anti-inflammatory analgesic agent comprising diclofenac diethylammonium salt, and the manufacturing method thereof” (Samyang Corporation, priority 1997, dated 2004).

The conditions of this data set: composition comprising hydroxy ethyl pyrrolidone or hydroxy ethyl piperidine as absorption enhancer.

Turning to `O=C(O)Cc1ccccc1Nc1c(Cl)cccc1Cl` [diclofenac], the “transdermal penetration of the accumulated diclofenac” value is on record as 180 μg/cm^2·day.
